These results are taken from US6849656B1, “Indole-containing and combretastatin-related anti-mitotic and anti-tubulin polymerization agents” (Baylor University, priority 1999, dated 2005).

≈ marks a conversion by molar mass, not a printed value. Where two headings read alike, the source gives them in different places. Some results are limits rather than exact numbers.

One data set relates to BXPC-3 (Pancreas-a). In words: Growth inhibition of human cancer cell line BXPC-3. The data set is classed as cell-based. On the procedure:
(§1) 3-(3′,4′,5′-Trimethoxybenzoyl)-2-(4′-methoxyphenyl)-6-methoxyindole was evaluated in terms of growth inhibitory activity against several human cancer cell lines, including pancreas, ovarian, CNS, lung-NSC, colon, and prostate lines. The assay used is described in Monks et al. Briefly, the cell suspensions, diluted according to the particular cell type and the expected target cell density (5,000-40,000 cells per well based on cell growth characteristics), were added by pipet (100 μl) to 96-well microtiter plates. Inoculates were allowed a preincubation time of24-28 hours at 37° C. for stabilization. Incubation with the inhibitor compounds lasted for 48 hours in 5% CO2 atmosphere and 100% humidity. Determination of cell growth was done by in situ fixation of cells, followed by staining with a protein-binding dye, sulforhodamine B (SRB), which binds to the basic amino acids of cellular macromolecules. The solubilized stain was measured spectrophotometrically. G150 is defined as the dosage required to inhibit tumor cell growth by 50%.

A further data set deals with SK-N-SH (Neuroblast). In words: Growth inhibition of human cancer cell line SK-N-SH. Type of data set: cell-based. The conditions noted are these: Table I.
For the next data set, the system named is SW1736 (Thyroid ca). Briefly: Growth inhibition of human cancer cell line SW1736. The data set is classed as cell-based. The conditions noted are these: SW-1736, SW1736, Table I.
In data set [1] the test system is NCI-H460 (Lung-NSC). In words: cells. Type of data set: cell-based. On the procedure:
as §1

Another data set has as its system FADU (Pharynx-sqam). In words: Growth inhibition of human cancer cell line FADU. Type of data set: cell-based. The conditions noted are these: Table I.
The next data set has as its system DU-145 (Prostate). Briefly: Growth inhibition of human cancer cell line DU-145. The data set is classed as cell-based. On the procedure: as §1
Data set [2] concerns T1, purified tubulin.
T1 construct: other: at 4 pM
In words: Inhibition of tubulin polymerization assay. The data set is classed as biochemical, bovine. On the procedure: IC50 values for tubulin polymerization were determined according to the procedure described in Bai et al. Purified tubulin is obtained from bovine brain cells as described in Hamel and Lin. Various amounts of inhibitor were preincubated for 15 minutes at 37° C. with purified tubulin. After the incubation period, the reaction was cooled and GTP was added to induce tubulin polymerization. Polymerization was then monitored in a Gilford spectrophotometer at 350 nm. The final reaction mixtures (0.25 ml) contained 1.5 mg/ml tubulin, 0.6 mg/ml microtubule-associated proteins (MAPs), 0.5 mM GTP, […], 4% DMSO and 0.1M 4-morpholineethanesulfonate buffer (MES, pH 6.4). IC50 is the amount of inhibitor needed to inhibit tubulin polymerization 50% with respect to the amount of […] that occurs in the absence of inhibitor.

Data set [3] concerns purified tubulin. The conditions noted are these: reported by Pettit and co-workers, cited from earlier work; for IC50: read-out: IC50 for inhibition of tubulin polymerization.
The subject of data set [4] is NCI-H460 (Lung-NSC). As to conditions: data from synthesis of phenstatin phosphate (Pettit); cited from earlier work.
Data set [5] relates to OVCAR-3 (Ovarian). The conditions noted are these: data from synthesis of phenstatin phosphate (Pettit); cited from earlier work.
Data set [6] relates to SF-295 (CNS). As to conditions: data from synthesis of phenstatin phosphate (Pettit); cited from earlier work.
The subject of data set [7] is KM20L2 (Colon). As to conditions: data from synthesis of phenstatin phosphate (Pettit); cited from earlier work.
Data set [8] has as its system OVCAR-3 (Ovarian). In words: Growth inhibition of human cancer cell line OVCAR-3. The data set is classed as cell-based. As to the method:
as §1

Data set [9] concerns SF-295 (CNS). In words: Growth inhibition of human cancer cell line SF-295. The data set is classed as cell-based. As to the method:
as §1

The test system of data set [10] is KM20L2 (Colon). Briefly: Growth inhibition of human cancer cell line KM20L2. The data set is classed as cell-based. As to the method: as §1
Another data set relates to P388 leukemia cells. Briefly: Cytotoxic assay with P388 leukemia cells. Type of data set: cell-based.
Setting [11] is: read-out: IC50 for inhibition of tubulin polymerization.

In the case of `COc1ccc(-c2c(C(=O)c3cc(OC)c(OC)c(OC)c3)oc3cc(OC)ccc23)cc1` [2-(3′,4′,5′-trimethoxybenzoyl)-3-(4′-methoxyphenyl)-6-methoxybenzo[b]furan, reference compound], the GI50 with BXPC-3 (Pancreas-a) (Homo sapiens, BXPC-3, Table I, read-out: GI50) came out at 0.038 µg/mL (≈ 0.0847 µM); with SK-N-SH (Neuroblast) it was 0.025 µg/mL (≈ 0.0557 µM); with SW1736 (Thyroid ca) it was 0.047 µg/mL (≈ 0.105 µM); in the data set with NCI-H460 (Lung-NSC) [1] (Homo sapiens, NCI-H460, Table I, read-out: GI50) it was 0.041 µg/mL (≈ 0.0914 µM); with FADU (Pharynx-sqam), 0.035 µg/mL (≈ 0.078 µM); in the data set on DU-145 (Prostate) (Homo sapiens, DU-145, Table I, read-out: GI50), 0.062 µg/mL (≈ 0.138 µM).
Take `COc1ccc(-c2[nH]c3cc(OC)ccc3c2C(=O)c2cc(OC)c(OC)c(OC)c2)cc1` [3-(3′,4′,5′-trimethoxybenzoyl)-2-(4′-methoxyphenyl)-6-methoxyindole]: the IC50 with purified tubulin [2] (setting [11]) was 0.5 to 1.5 µM.
On to `COc1ccc(/C=C\c2cc(OC)c(OC)c(OC)c2)cc1N` [Amine-CA-4 8], for which the IC50 with purified tubulin [2] (setting [11]) was 1.2 ± 0.02 µM. The GI50 in the data set on NCI-H460 (Lung-NSC) [1] (Homo sapiens, NCI-H460, read-out: GI50) stood at 0.00068 µg/mL (≈ 0.00216 µM).
For the compound `COc1ccc(/C=C\c2cc(OC)c(OC)c(OC)c2)cc1OP(=O)(O)O` [Combretastatin A-4 Prodrug], the “inhibition of tubulin polymerization” value with purified tubulin [3] is on record as “no inhibition”. In addition, in the data set with purified tubulin [3], the IC50 is above 80 µM. Further, the GI50 in the data set on NCI-H460 (Lung-NSC) [4] was 0.029 µg/mL (≈ 0.0732 µM); with OVCAR-3 (Ovarian) [5], 0.023 µg/mL (≈ 0.058 µM); in the data set with SF-295 (CNS) [6], 0.036 µg/mL (≈ 0.0908 µM); with KM20L2 (Colon) [7] it was 0.34 µg/mL (≈ 0.858 µM).
As to `COc1ccc(-c2[nH]c3cc(OC)ccc3c2C(=O)c2cc(OC)c(OC)c(OC)c2)cc1` [Indole-based Ligand 33, 3-(3′,4′,5′-trimethoxybenzoyl)-2-(4′-methoxyphenyl)-6-methoxyindole], the GI50 with BXPC-3 (Pancreas-a) (Homo sapiens, BXPC-3, 48 hours, SRB, read-out: GI50) was determined as 0.002 µg/mL (≈ 0.00447 µM); in the data set on NCI-H460 (Lung-NSC) [1] (Homo sapiens, NCI-H460, 48 hours, SRB, read-out: GI50) it was 0.0026 µg/mL (≈ 0.00581 µM); in the data set with DU-145 (Prostate) (Homo sapiens, DU-145, 48 hours, SRB, read-out: GI50), 0.0023 µg/mL (≈ 0.00514 µM); in the data set on OVCAR-3 (Ovarian) [8] (Homo sapiens, OVCAR-3, 48 hours, SRB, read-out: GI50), 0.0024 µg/mL (≈ 0.00536 µM); with SF-295 (CNS) [9] (Homo sapiens, SF-295, 48 hours, SRB, read-out: GI50), 0.0024 µg/mL (≈ 0.00536 µM); in the data set on KM20L2 (Colon) [10] (Homo sapiens, KM-20L2, KM20L2, 48 hours, SRB, read-out: GI50) it was 0.0017 µg/mL (≈ 0.0038 µM). In addition, the “ED50 (effective dosage required to inhibit 50% of cell growth)” value in the data set with P388 leukemia cells (P388 leukemia cells) turned out to be 0.0133 µg/mL.
As for `COc1ccc(C(=O)c2cc(OC)c(OC)c(OC)c2)cc1OP(=O)(O)O` [Phenstatin Prodrug], the “activity in inhibition of tubulin polymerization compared to phenstatin” value in the data set on purified tubulin [3] is 40%. In addition, the IC50 in the data set with purified tubulin [3] is 21 ± 3 µM. Moreover, the GI50 was 0.035 µg/mL (≈ 0.0879 µM) in the data set on NCI-H460 (Lung-NSC) [4], 0.0025 µg/mL (≈ 0.00628 µM) in the data set on OVCAR-3 (Ovarian) [5], 0.012 µg/mL (≈ 0.0301 µM) with SF-295 (CNS) [6] and 0.27 µg/mL (≈ 0.678 µM) in the data set with KM20L2 (Colon) [7].
Consider `COc1ccc(C(=O)c2cc(OC)c(OC)c(OC)c2)cc1O` [Phenstatin, phenstatin], for which the IC50 in the data set with purified tubulin [3] was 1 ± 0.2 µM. Further, the GI50 in the data set on NCI-H460 (Lung-NSC) [4] is 0.0057 µg/mL (≈ 0.0179 µM); with OVCAR-3 (Ovarian) [5], 0.0023 µg/mL (≈ 0.00723 µM); with SF-295 (CNS) [6] it was 0.052 µg/mL (≈ 0.163 µM); in the data set on KM20L2 (Colon) [7], 0.0004 µg/mL (≈ 0.00126 µM).
For `CCOP(=O)(Nc1cc(/C=C\c2cc(OC)c(OC)c(OC)c2)ccc1OC)OCC` [Phosphoramidate Analog 10, (Z)-1-(3′-Diethylphosphoramidate-4′-methoxyphenyl)-2-(3″,4″,5″-trimethoxyphenyl)ethene], the “activity in inhibition of tubulin polymerization” value in the data set with purified tubulin [2] is reported as “little if any activity”. In addition, the GI50 was 0.15 µg/mL (≈ 0.332 µM) in the data set with BXPC-3 (Pancreas-a) (BXPC-3); 0.35 µg/mL (≈ 0.775 µM) in the data set with NCI-H460 (Lung-NSC) [1] (NCI-H460); 0.26 µg/mL (≈ 0.576 µM) with DU-145 (Prostate) (DU-145); 0.19 µg/mL (≈ 0.421 µM) with OVCAR-3 (Ovarian) [8] (OVCAR-3); 0.24 µg/mL (≈ 0.532 µM) with SF-295 (CNS) [9] (SF-295); 0.28 µg/mL (≈ 0.62 µM) in the data set with KM20L2 (Colon) [10] (KM20L2). This compound also displayed a GI50 with P388 leukemia cells (P388) of 0.31 µg/mL (≈ 0.687 µM). Also, the LC50 with BXPC-3 (Pancreas-a) (BXPC-3), with NCI-H460 (Lung-NSC) [1] (NCI-H460), with DU-145 (Prostate) (DU-145), in the data set on OVCAR-3 (Ovarian) [8] (OVCAR-3), in the data set on SF-295 (CNS) [9] (SF-295) and in the data set on KM20L2 (Colon) [10] (KM20L2) was above 10 µg/mL each time. Moreover, the TGI in the data set with BXPC-3 (Pancreas-a) (BXPC-3) was 0.57 µg/mL (≈ 1.26 µM); in the data set on NCI-H460 (Lung-NSC) [1] (NCI-H460), above 10 µg/mL; in the data set on DU-145 (Prostate) (DU-145) it was 0.26 µg/mL (≈ 0.576 µM); with OVCAR-3 (Ovarian) [8] (OVCAR-3) it was 0.86 µg/mL (≈ 1.9 µM); with SF-295 (CNS) [9] (SF-295), above 10 µg/mL; with KM20L2 (Colon) [10] (KM20L2), 0.61 µg/mL (≈ 1.35 µM).
For `COc1ccc(/C=C\c2cc(OC)c(OC)c(OC)c2)cc1O` [combretastatin A-4, reference compound], the values for the IC50 with purified tubulin [2] (read-out: 50% inhibition of the maximum tubulin assembly rate) and with purified tubulin [3] were […] and […], respectively.

As a reminder, the GI50 is the concentration at which growth is held to half of that of the control. What is called LC50 is the concentration that kills 50% of the test population. What is called TGI is the concentration at which net growth stops.
